System: control cell line without sweet receptor (HEKα15#17)
Assay: Control cell line without sweet receptor in the same calcium cell based assay
Protocol: For measurement of human T1R2/T1R3 taste receptor dependent activity a control cell line without sweet receptor based on HEK 293 and a cell line expressing the sweet receptor hT1R2/hT1R3 based on HEK 293, respectively, are seeded into assay plates and labelled with the calcium sensitive fluorescence dye Fluo4-AM in a culture medium. The potential modulators, e.g. the test compound, are added to the control cell line and to the cell line expressing the sweet receptor hT1R2/hT1R3, respectively.
A stable cell line based on HEK293 was termed HEKα15#17 served as control for functional Ga-protein and a stable cell line HEKGα15#17R2R3b#8 C6 served as cell line expressing the sweet receptor hT1R2/hT1R3 based on HEKGα15#17.
The cells were cultured in DMEM/HG and 10% FCS Gold, 4 mM L-Glutamin, 1,3 mg/ml Geneticin (HEKGα15#17) or the same medium additionally containing 6 μg/ml Blasticidin (HEKGα15#17R2R3b#8 C6). The medium for the assay was DMEM/HG (high glucose, 4.5 g/l glucose, Life Technologies) and 10% FCS Gold, 4 mM L-Glutamin (HEKGα15#17) or DMEM/LG (low glucose, 1 g/l glucose; Life Technologies) and 10% FCS Gold (HEKGα15#17R2R3b#8C6), respectively.
In order to evaluate the sweet receptor modulating activity of the compound of formula (Ia), compound of formula (Ia) was added to the cultures in a concentration of 25 μM in a volume of 50 μl. Controls were KH-buffer (Krebs HEPES-buffer: 118 mM NaCl, 4.7 mM KCl, 1.2 mM MgSO4, 1.2 mM KH2PO4, 4.2 mM NaHCO3, 1.3 mM CaCl2, 10 mM Hepes, pH 7.4) either without or with sweetness enhancer.
Further controls for function of G-protein and receptor were isoproterenol (1 μM, Sigma Aldrich), ionomycin (1 μM, Calbiochem) and ATP (1 μM, Applichem).
For measurement of human T1R2/T1R3 taste receptor dependent activity, on day 1 of the test procedure the HEKα15#17 cells (control cell line without sweet receptor) and the HEKGα15#17R2R3b#8 C6 cells (cell line expressing the sweet receptor hT1R2/hT1R3), respectively, were transferred to low-glucose medium.
On day 2 the cells were seeded into assay plates at a density of 25,000 cells/well. Assay plates for fluorescence measurement (black clear bottom 96-cavity plates, Greiner Bio-One) were coated with poly-D-lysine. For direct comparison both cell lines (control cell line without sweet receptor and cell line expressing the sweet receptor hT1R2/hT1R3) were seeded into different cavities of the same assay plate. The plate was placed into the incubator for 48 hours at 37° C., 5% CO2, 100% relative humidity.
On day 4 the calcium assay was performed. For this assay, the cells were marked with Fluo4-AM in medium and KH-buffer. To each cavity 100 μl KH-buffer/250 μM sulfinpyrazone/4 μM Fluo4-AM were added gently to 100 μl medium (final concentration of Fluo4-AM=2 μM, stock solution of Fluo4-AM 1 mM in DMSO, excitation at 485 nm, emission at 520 nm, Fisher Scientific, 58239 Schwerte, Germany).
The plate was placed into the incubator for 1 hour. In the mean time the test substances (“ligands”) were prepared in a separate plate (5 times concentrated, 150 μl/cavity, and then automatically 50 μl/cavity were transferred into the screening cell plate by pipetting robot (FLEX-station, Molecular Devices, Sunnyvale, Calif.).
The culture medium was carefully removed and 200 μl KH-buffer/250 μM sulfinpyrazone per cavity was added slowly. Cells were left in the FLEX-station for 20 minutes for adaptation, followed by measurement at 37° C.

[1] = control compounds 1 μM, FIG. 1 second to fourth bars

SMILES | Fluo4-AM fluorescence increase (activation of control cell line) [1] | also measured
Nc1ncnc2c1ncn2[C@@H]1O[C@H](COP(=O)(O)OP(=O)(O)OP(=O)(O)O)[C@@H](O)[C@H]1O [ATP] | activate both the control and the cell line expressing the sweet receptor hT1R2/hT1R3 | –
O=C(CO)[C@@H](O)[C@H](O)[C@H](O)CO [fructose] | – | Fluo4-AM fluorescence increase (activation of control cell line) (KH buffer/fructose (20 mM), FIG. 1 fifth bar): does neither activate the control cell line
C[C@H](CCC(=O)O)C[C@H](C)C[C@H](C)C(=O)/C=C(\O)[C@H](C)C[C@H](C)C/C=C/[C@@H](C)[C@@H](O)[C@@H](C)[C@@H](O)C[C@@H]1CC[C@@](C)([C@H]2CC[C@@](C)([C@@H](C)O)O2)O1 [ionomycin] | activate both the control and the cell line expressing the sweet receptor hT1R2/hT1R3 | –
CC(C)NCC(O)c1ccc(O)c(O)c1 (centres unmarked) [isoproterenol] | activate both the control and the cell line expressing the sweet receptor hT1R2/hT1R3 | –
O=S(=O)([O-])NC1CCCCC1.[Na+] [sodium cyclamate] | – | Fluo4-AM fluorescence increase (activation of control cell line) (sodium cyclamate 30 mM, control sweetener, FIG. 1 first bar): does not activate the control cell line

From US20140010939A1, “Sweetness Enhancers, Sweetener Compositions, Methods of Making the Same and Consumables Containing the Same” (Nutrinova Nutrition Specialties & Food Ingredients GmbH, priority 2011, published 2014)
